Results published in US9549932B2, “2-(morpholin-4-yl)-1,7-naphthyridines” (BAYER PHARMA AKTIENGESELLSCHAFT, priority 2014, dated 2017).
Where two headings read alike, the source gives them in different places.

Target: full-length human ATR protein (Homo sapiens (Human), UniProt Q13535)
Assay: Binding assay ATR (TR-FRET tracer displacement)
Conditions: TR-FRET
Procedure, shortened: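 Full-length human GST-ATR co-purified with ATRIP, pre-complexed 30 min at 22 °C with anti-GST-Tb antibody, then pre-bound with compound 10 min. Tracer A or B added (2 µl of 100 nM solution), 30 min at 22 °C.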

[1] = tracer A, read-out: ATR binding (tracer A) IC50
[2] = tracer B, read-out: ATR binding (tracer B) IC50

full-length human ATR protein, sequence (Q13535 other isoform, or with tags, fused parts or gaps): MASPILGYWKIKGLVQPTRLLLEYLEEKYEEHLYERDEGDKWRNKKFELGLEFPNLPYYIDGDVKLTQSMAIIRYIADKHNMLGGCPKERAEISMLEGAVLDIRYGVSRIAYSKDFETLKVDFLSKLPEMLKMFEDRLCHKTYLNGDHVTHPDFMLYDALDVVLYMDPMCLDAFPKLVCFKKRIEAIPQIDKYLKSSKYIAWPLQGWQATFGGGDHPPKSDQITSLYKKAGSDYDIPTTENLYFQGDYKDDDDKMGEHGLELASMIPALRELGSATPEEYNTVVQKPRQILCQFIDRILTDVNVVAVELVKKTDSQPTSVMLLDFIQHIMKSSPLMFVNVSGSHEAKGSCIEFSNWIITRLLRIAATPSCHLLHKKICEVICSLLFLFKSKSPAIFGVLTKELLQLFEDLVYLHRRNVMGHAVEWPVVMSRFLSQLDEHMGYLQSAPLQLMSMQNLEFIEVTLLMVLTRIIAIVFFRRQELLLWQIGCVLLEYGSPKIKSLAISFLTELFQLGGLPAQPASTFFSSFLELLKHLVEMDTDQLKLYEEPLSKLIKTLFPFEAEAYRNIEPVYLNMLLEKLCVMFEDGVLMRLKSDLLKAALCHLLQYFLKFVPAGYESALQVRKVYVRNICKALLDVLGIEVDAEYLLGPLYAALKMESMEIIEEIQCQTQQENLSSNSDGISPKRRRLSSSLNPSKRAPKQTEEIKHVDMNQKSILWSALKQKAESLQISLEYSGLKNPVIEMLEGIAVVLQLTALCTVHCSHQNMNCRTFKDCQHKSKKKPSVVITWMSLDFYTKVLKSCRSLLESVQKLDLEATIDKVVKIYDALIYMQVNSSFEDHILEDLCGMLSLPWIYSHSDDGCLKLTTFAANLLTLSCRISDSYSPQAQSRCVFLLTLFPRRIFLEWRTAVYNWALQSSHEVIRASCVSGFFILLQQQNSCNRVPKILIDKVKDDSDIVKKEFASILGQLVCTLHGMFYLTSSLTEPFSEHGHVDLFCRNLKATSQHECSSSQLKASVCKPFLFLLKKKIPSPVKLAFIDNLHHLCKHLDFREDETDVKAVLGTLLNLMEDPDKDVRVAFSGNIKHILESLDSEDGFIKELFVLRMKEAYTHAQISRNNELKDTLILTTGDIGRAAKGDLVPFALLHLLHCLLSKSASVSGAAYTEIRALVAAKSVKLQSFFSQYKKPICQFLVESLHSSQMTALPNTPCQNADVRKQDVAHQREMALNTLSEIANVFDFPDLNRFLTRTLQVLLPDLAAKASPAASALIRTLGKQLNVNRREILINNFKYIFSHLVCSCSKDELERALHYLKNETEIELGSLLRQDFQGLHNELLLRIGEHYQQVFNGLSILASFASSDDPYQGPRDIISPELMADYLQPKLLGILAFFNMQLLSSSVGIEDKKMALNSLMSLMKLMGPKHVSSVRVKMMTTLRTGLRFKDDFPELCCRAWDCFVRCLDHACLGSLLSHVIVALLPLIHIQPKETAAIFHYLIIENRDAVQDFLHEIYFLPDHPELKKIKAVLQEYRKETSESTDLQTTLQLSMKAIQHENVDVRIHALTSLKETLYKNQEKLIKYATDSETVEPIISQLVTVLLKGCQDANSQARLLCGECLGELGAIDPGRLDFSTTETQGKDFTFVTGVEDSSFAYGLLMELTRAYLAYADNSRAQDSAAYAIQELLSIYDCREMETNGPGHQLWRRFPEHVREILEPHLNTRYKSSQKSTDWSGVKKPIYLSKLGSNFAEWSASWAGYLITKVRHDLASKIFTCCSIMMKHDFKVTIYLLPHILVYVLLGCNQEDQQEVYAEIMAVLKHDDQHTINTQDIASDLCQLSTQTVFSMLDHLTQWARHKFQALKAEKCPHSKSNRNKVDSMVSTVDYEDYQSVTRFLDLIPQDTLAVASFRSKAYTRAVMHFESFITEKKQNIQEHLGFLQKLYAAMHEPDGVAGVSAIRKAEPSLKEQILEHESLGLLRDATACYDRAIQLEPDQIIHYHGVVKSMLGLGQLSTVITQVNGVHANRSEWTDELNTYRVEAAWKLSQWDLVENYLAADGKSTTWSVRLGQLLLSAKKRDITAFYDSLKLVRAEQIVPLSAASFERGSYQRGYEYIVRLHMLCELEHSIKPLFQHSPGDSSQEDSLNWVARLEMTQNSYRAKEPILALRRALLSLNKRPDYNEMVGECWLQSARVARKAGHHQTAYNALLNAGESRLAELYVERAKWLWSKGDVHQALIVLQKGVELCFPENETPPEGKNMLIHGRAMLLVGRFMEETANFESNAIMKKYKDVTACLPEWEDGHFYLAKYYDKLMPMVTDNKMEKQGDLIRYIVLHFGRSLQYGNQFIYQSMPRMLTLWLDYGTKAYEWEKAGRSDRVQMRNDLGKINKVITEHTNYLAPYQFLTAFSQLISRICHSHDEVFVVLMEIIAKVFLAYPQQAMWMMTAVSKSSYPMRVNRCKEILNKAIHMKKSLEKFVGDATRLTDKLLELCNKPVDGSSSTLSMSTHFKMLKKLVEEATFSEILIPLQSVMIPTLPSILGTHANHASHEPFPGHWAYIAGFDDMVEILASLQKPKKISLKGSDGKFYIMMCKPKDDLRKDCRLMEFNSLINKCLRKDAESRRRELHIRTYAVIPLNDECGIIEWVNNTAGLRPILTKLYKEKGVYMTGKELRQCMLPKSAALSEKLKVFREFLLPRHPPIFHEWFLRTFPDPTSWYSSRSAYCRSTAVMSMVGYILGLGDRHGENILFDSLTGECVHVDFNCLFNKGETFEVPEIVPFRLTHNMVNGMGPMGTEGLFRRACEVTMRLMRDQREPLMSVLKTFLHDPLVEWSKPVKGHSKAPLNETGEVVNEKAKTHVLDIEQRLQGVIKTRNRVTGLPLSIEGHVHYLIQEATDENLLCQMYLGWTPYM
full-length human ATR protein, sequence (Q8WXE1 other isoform, or with tags, fused parts or gaps partner): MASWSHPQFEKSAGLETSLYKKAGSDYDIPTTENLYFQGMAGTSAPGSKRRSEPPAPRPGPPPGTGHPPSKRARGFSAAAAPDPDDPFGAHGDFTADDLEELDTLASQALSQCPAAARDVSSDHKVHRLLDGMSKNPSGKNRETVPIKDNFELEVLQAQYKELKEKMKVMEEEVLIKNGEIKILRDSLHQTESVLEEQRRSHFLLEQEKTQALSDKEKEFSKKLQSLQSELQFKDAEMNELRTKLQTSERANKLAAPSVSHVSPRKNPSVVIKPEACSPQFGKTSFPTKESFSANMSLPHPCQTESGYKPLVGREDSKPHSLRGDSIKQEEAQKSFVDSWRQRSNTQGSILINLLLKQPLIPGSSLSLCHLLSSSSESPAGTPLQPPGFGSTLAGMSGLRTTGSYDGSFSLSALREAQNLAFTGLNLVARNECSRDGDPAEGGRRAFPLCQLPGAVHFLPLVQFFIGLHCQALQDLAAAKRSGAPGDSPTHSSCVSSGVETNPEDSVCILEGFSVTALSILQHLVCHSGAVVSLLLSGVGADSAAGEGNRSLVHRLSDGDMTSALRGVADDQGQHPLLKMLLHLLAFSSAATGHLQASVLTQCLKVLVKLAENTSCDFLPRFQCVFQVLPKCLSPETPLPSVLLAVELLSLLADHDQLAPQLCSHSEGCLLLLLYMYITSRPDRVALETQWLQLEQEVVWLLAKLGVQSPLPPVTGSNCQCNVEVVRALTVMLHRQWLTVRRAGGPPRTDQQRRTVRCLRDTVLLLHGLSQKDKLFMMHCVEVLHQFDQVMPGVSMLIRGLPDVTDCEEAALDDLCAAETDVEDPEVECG

| Structure (SMILES) | IC50 [1] | IC50 [2] |
| --- | --- | --- |
| Oc1cccc(-c2cc(N3CCOCC3)nc3c(-c4ccn[nH]4)nccc23)c1 [Example 337, 3-[2-(morpholin-4-yl)-8-(1H-pyrazol-5-yl)-1,7-naphthyridin-4-yl]phenol] | 28.4 nM |  |
| C[C@@H]1COCCN1c1cc(-c2cccc(S(C)(=O)=O)c2)c2ccnc(-c3cc[nH]n3)c2n1 [Example 28, 4-(3-methanesulphonylphenyl)-2-((R)-3-methylmorpholin-4-yl)-8-(2H-pyrazol-3-yl)-[1,7]naphthyridine] | 17.6 nM | 8.4 nM |
| CCCN(C)c1cc(N2CCOCC2)nc2c(-c3ccn[nH]3)nccc12 [Example 412, N-methyl-2-(morpholin-4-yl)-N-propyl-8-(1H-pyrazol-5-yl)-1,7-naphthyridin-4-amine] | 162 nM |  |
| Cc1noc(C)c1-c1cc(N2CCOC[C@H]2C)nc2c(-c3ccn[nH]3)nccc12 [Example 105, 4-(3,5-dimethyl-1,2-oxazol-4-yl)-2-[(3R)-3-methylmorpholin-4-yl]-8-(1H-pyrazol-5-yl)-1,7-naphthyridine] | 8.67 nM |  |
| C[C@@H]1COCCN1c1cc(N2CCOCC2)nc2c(-c3ccn[nH]3)nccc12 [Example 148, 4-[(3R)-3-methylmorpholin-4-yl]-2-(morpholin-4-yl)-8-(1H-pyrazol-5-yl)-1,7-naphthyridine] | 47.9 nM |  |
| c1cnc2c(-c3cc(N4CCOCC4)nc4c(-c5ccn[nH]5)nccc34)cccc2c1 [Example 380, 2-(morpholin-4-yl)-8-(1H-pyrazol-5-yl)-4-(quinolin-8-yl)-1,7-naphthyridine] | 1460 nM |  |
| FC1CCCN(c2cc(N3CCOCC3)nc3c(-c4ccn[nH]4)nccc23)C1 (stereo not shown) [Example 426, 4-(3-fluoropiperidin-1-yl)-2-(morpholin-4-yl)-8-(1H-pyrazol-5-yl)-1,7-naphthyridine] | 159 nM |  |
| COc1ccc(-c2cc(N3CCOC[C@H]3C)nc3c(-c4ccn[nH]4)nccc23)cn1 [Example 95, 4-(6-methoxypyridin-3-yl)-2-[(3R)-3-methylmorpholin-4-yl]-8-(1H-pyrazol-5-yl)-1,7-naphthyridine] | 11.3 nM |  |
| CCOC(=O)N=S(C)(=O)c1cccc(-c2cc(N3CCOCC3)nc3c(-c4ccn[nH]4)nccc23)c1 (stereo not shown) [Example 13] | 141 nM | 104 nM |
| Cc1ccc(-c2cc(N3CCOC[C@H]3C)nc3c(-c4ccn[nH]4)nccc23)cn1 [Example 88, 2-[(3R)-3-methylmorpholin-4-yl]-4-(6-methylpyridin-3-yl)-8-(1H-pyrazol-5-yl)-1,7-naphthyridine] | 15.3 nM |  |
| CS(=O)(=O)c1ccc(-c2cc(N3CCOCC3)nc3c(-c4ccn[nH]4)nccc23)cn1 [Example 3, 4-[6-(methylsulfonyl)pyridin-3-yl]-2-(morpholin-4-yl)-8-(1H-pyrazol-5-yl)-1,7-naphthyridine] | 56.9 nM | 38.7 nM |
| CS(=O)(=O)Nc1ccccc1-c1cc(N2CCOCC2)nc2c(-c3ccn[nH]3)nccc12 [Example 322, N-{2-[2-(morpholin-4-yl)-8-(1H-pyrazol-5-yl)-1,7-naphthyridin-4-yl]phenyl}methanesulfonamide] | 80.9 nM |  |
| C[C@@H]1COCCN1c1cc(OCCCCN)c2ccnc(-c3ccn[nH]3)c2n1 [Example 57, 4-({2-[(3R)-3-methylmorpholin-4-yl]-8-(1H-pyrazol-5-yl)-1,7-naphthyridin-4-yl}oxy)butan-1-amine] | 230 nM |  |
| C[C@@H]1COCCN1c1cc(C2=CCSCC2)c2ccnc(-c3ccn[nH]3)c2n1 [Example 108, 4-(3,6-dihydro-2H-thiopyran-4-yl)-2-[(3R)-3-methylmorpholin-4-yl]-8-(1H-pyrazol-5-yl)-1,7-naphthyridine] | 11.5 nM |  |
| CN1CCN(c2cc(N3CCOCC3)nc3c(-c4ccn[nH]4)nccc23)CC1 [Example 182, 4-(4-methylpiperazin-1-yl)-2-(morpholin-4-yl)-8-(1H-pyrazol-5-yl)-1,7-naphthyridine] | 632 nM |  |
| COc1ccccc1-c1cc(N2CCOCC2)nc2c(-c3ccn[nH]3)nccc12 [Example 300, 4-(2-methoxyphenyl)-2-(morpholin-4-yl)-8-(1H-pyrazol-5-yl)-1,7-naphthyridine] | 181 nM |  |
| C[C@@H]1COCCN1c1cc(-c2cc(C(F)(F)F)nn2C)c2ccnc(-c3ccn[nH]3)c2n1 [Example 98, 2-[(3R)-3-methylmorpholin-4-yl]-4-[1-methyl-3-(trifluoromethyl)-1H-pyrazol-5-yl]-8-(1H-pyrazol-5-yl)-1,7-naphthyridine] | 13.1 nM |  |
| Cc1cc(-c2cc(N3CCOC[C@H]3C)nc3c(-c4ccn[nH]4)nccc23)c(C)s1 [Example 240, 4-(2,5-dimethylthiophen-3-yl)-2-[(3R)-3-methylmorpholin-4-yl]-8-(1H-pyrazol-5-yl)-1,7-naphthyridine] | 30 nM |  |
| c1cc(-c2cc(N3CCOCC3)nc3c(-c4ccn[nH]4)nccc23)ccn1 [Example 221, 2-(morpholin-4-yl)-8-(1H-pyrazol-5-yl)-4-(pyridin-4-yl)-1,7-naphthyridine] | 196 nM |  |
| C[C@@H]1COCCN1c1cc(-c2cnn(CCO)c2)c2ccnc(-c3ccn[nH]3)c2n1 [Example 260, 2-(4-{2-[(3R)-3-methylmorpholin-4-yl]-8-(1H-pyrazol-5-yl)-1,7-naphthyridin-4-yl}-1H-pyrazol-1-yl)ethanol] | 28.1 nM |  |
| O=C(NC1CC1)c1ccc(-c2cc(N3CCOCC3)nc3c(-c4ccn[nH]4)nccc23)cc1 [Example 291, N-cyclopropyl-4-[2-(morpholin-4-yl)-8-(1H-pyrazol-5-yl)-1,7-naphthyridin-4-yl]benzamide] | 83.7 nM |  |
| Fc1cncc(-c2cc(N3CCOCC3)nc3c(-c4ccn[nH]4)nccc23)c1 [Example 394, 4-(5-fluoropyridin-3-yl)-2-(morpholin-4-yl)-8-(1H-pyrazol-5-yl)-1,7-naphthyridine] | 119 nM |  |
| OC1CCN(c2cc(N3CCOCC3)nc3c(-c4ccn[nH]4)nccc23)CC1 [Example 409, 1-[2-(morpholin-4-yl)-8-(1H-pyrazol-5-yl)-1,7-naphthyridin-4-yl]piperidin-4-ol] | 139 nM |  |
| Cc1ncccc1-c1cc(N2CCOC[C@H]2C)nc2c(-c3ccn[nH]3)nccc12 [Example 218, 2-[(3R)-3-methylmorpholin-4-yl]-4-(2-methylpyridin-3-yl)-8-(1H-pyrazol-5-yl)-1,7-naphthyridine] | 11.8 nM |  |
| Clc1cccc(-c2cc(N3CCOCC3)nc3c(-c4ccn[nH]4)nccc23)c1 [Example 304, 4-(3-chlorophenyl)-2-(morpholin-4-yl)-8-(1H-pyrazol-5-yl)-1,7-naphthyridine] | 57.2 nM |  |
| CC(C)n1nccc1-c1cc(N2CCOC[C@H]2C)nc2c(-c3ccn[nH]3)nccc12 [Example 124, 4-(1-isopropyl-1H-pyrazol-5-yl)-2-[(3R)-3-methylmorpholin-4-yl]-8-(1H-pyrazol-5-yl)-1,7-naphthyridine] | 13.6 nM |  |
| Cc1ccc2c(c1)cc(-c1cc(N3CCOCC3)nc3c(-c4ccn[nH]4)nccc13)n2C(=O)OC(C)(C)C [Example 377, tert-butyl 5-methyl-2-[2-(morpholin-4-yl)-8-(1H-pyrazol-5-yl)-1,7-naphthyridin-4-yl]-1H-indole-1-carboxylate] | 2990 nM |  |
| Fc1ccccc1-c1cc(N2CCOCC2)nc2c(-c3ccn[nH]3)nccc12 [Example 327, 4-(2-fluorophenyl)-2-(morpholin-4-yl)-8-(1H-pyrazol-5-yl)-1,7-naphthyridine] | 17.7 nM |  |
